Measured values taken from ChEMBL document CHEMBL2385055, “Optimization of a 1,5-dihydrobenzo[b][1,4]diazepine-2,4-dione series of HIV capsid assembly inhibitors 2: structure-activity relationships (SAR) of the C3-phenyl moiety” (Bioorg Med Chem Lett, 2013).

Legend:
[1] = Induction of HIV1 NL4-3 nucleocapsid protein disassembly expressed in expressed in Escherichia coli BL21 (DE3) using 5'-end fluorescein labeled (TG)25 oligonucleotide after 2 hrs by fluorescence assay; parameters: species or system Human immunodeficiency virus 1
[2] = Cytotoxicity against human C8166 cells; assay type: cell-based
[3] = test system: Human immunodeficiency virus 1; assay: Antiviral activity against HIV1 infected in human C8166 cells assessed as inhibition of viral replication after 2 days by luciferase assay; assay type: functional, organism-based; conditions: Human immunodeficiency virus 1, C8166, 48 h
[4] = Inhibition of HIV1 NL4-3 nucleocapsid protein assembly expressed in expressed in Escherichia coli BL21 (DE3) using 5'-end fluorescein labeled (TG)25 oligonucleotide after 2 hrs by fluorescence assay; parameters: species or system Human immunodeficiency virus 1
Cytochrome P450 3A4 = Cytochrome P450 3A4 (Homo sapiens, UniProt P08684); assay: Inhibition of CYP3A4 (unknown origin); assay type: ADME
[5] = Half life in human liver microsomes; assay type: ADME, Microsome
Cytochrome P450 2D6 = Cytochrome P450 2D6 (Homo sapiens, UniProt P10635); assay: Inhibition of CYP2D6 (unknown origin); assay type: ADME
[6] = Permeability across human Caco2 cells; assay type: ADME, cell-based; conditions: Caco-2, read-out: permeability
[7] = Half life in rat liver microsomes; assay type: ADME, Microsome
[8] = Half life in iv dosed rat; assay type: ADME, organism-based; conditions: in vivo
[9] = Volume of distribution at steady state in iv dosed rat; assay type: ADME, organism-based; conditions: in vivo, read-out: Vdss
Rattus norvegicus = assay: Total clearance in iv dosed rat relative to liver blood perfusion rate; assay type: ADME, organism-based; conditions: in vivo

Chain of Cytochrome P450 2D6 (P10635 whole entry): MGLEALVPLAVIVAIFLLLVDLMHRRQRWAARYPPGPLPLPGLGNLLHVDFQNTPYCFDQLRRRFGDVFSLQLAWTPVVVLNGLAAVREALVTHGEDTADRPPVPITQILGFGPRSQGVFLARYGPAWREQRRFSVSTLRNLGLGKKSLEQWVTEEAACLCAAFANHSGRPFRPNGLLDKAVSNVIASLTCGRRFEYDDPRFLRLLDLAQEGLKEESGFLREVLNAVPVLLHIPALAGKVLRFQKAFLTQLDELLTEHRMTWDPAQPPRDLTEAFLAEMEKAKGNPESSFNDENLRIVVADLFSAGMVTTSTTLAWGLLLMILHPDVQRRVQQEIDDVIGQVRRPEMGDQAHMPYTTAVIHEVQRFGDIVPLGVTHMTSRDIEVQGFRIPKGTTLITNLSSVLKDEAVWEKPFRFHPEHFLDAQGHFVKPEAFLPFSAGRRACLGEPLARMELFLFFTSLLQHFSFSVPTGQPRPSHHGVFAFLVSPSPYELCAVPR
Chain of Cytochrome P450 3A4 (P08684 whole entry): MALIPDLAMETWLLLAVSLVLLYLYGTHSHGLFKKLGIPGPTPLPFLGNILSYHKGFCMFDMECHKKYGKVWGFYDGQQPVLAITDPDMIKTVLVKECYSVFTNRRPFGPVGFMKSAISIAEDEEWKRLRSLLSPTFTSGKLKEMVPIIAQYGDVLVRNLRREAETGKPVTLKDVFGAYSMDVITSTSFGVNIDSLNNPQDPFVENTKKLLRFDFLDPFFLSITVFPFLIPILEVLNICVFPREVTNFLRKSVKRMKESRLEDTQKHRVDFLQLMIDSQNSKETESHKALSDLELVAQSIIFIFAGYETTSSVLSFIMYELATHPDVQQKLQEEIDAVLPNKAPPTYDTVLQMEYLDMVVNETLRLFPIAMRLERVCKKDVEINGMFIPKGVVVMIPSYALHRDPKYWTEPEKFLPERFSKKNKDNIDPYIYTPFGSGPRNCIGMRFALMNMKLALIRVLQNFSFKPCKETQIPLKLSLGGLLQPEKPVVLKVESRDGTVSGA

| SMILES | IC50 [1] | CC50 [2] | EC50 [3] | IC50 [4] | further results |
| --- | --- | --- | --- | --- | --- |
| CN1C(=O)C(c2ccccc2)C(=O)N(c2ccccc2)c2cc(C(F)(F)F)ccc21 (stereo not given) | 680 nM |  |  |  |  |
| CCN1C(=O)C(c2ccc(-c3cnco3)cc2)C(=O)N(c2ccccc2)c2cc(C(F)(F)F)ccc21 (stereo not given) | 470 nM | > 7000 nM | 1100 nM | 760 nM |  |
| CCN1C(=O)C(c2ccccc2)C(=O)N(c2ccccc2)c2cc(C(F)(F)F)ccc21 (stereo not given) | 480 nM |  |  | 730 nM |  |
| COc1ccccc1C1C(=O)N(C)c2ccc(C(F)(F)F)cc2N(c2ccccc2)C1=O (stereo not given) |  |  | 2700 nM | 710 nM |  |
| COc1cccc(C2C(=O)N(C)c3ccc(C(F)(F)F)cc3N(c3ccccc3)C2=O)c1 (stereo not given) |  |  | 1200 nM | 550 nM |  |
| COc1ccc(C2C(=O)N(C)c3ccc(C(F)(F)F)cc3N(c3ccccc3)C2=O)cc1 (stereo not given) |  |  | 3200 nM | 1100 nM |  |
| CCN1C(=O)C(c2ccc(O)cc2)C(=O)N(c2ccccc2)c2cc(C(F)(F)F)ccc21 (stereo not given) | 180 nM |  | 1000 nM | 400 nM |  |
| CCN1C(=O)C(c2ccc(O)c(OC)c2)C(=O)N(c2ccccc2)c2cc(C(F)(F)F)ccc21 (stereo not given) | 110 nM | 42000 nM | 530 nM | 590 nM |  |
| CCN1C(=O)C(c2ccccc2-c2ccncc2)C(=O)N(c2ccccc2)c2cc(C(F)(F)F)ccc21 (stereo not given) |  |  |  | > 7200 nM |  |
| CCN1C(=O)C(c2cccc(-c3ccncc3)c2)C(=O)N(c2ccccc2)c2cc(C(F)(F)F)ccc21 (stereo not given) | 190 nM | 17000 nM | 790 nM | 530 nM |  |
| CCN1C(=O)C(c2ccc(-c3ccncc3)cc2)C(=O)N(c2ccccc2)c2cc(C(F)(F)F)ccc21 (stereo not given) | 210 nM | 15000 nM | 570 nM | 390 nM |  |
| CCN1C(=O)C(c2cccc(-c3cccnc3)c2)C(=O)N(c2ccccc2)c2cc(C(F)(F)F)ccc21 (stereo not given) |  | 20000 nM | 1000 nM | 480 nM |  |
| CCN1C(=O)C(c2cccc(-c3cnn(C)c3)c2)C(=O)N(c2ccccc2)c2cc(C(F)(F)F)ccc21 (stereo not given) | 130 nM | 20000 nM | 710 nM | 630 nM |  |
| CCN1C(=O)C(c2cccc(-c3ccnn3C)c2)C(=O)N(c2ccccc2)c2cc(C(F)(F)F)ccc21 (stereo not given) | 300 nM | 30000 nM | 990 nM | 670 nM |  |
| CCN1C(=O)C(c2ccc(-c3cccnc3)cc2)C(=O)N(c2ccccc2)c2cc(C(F)(F)F)ccc21 (stereo not given) | 320 nM | 7000 nM | 400 nM | 400 nM |  |
| CCN1C(=O)C(c2ccc(-c3cnc(OC)nc3)cc2)C(=O)N(c2ccccc2)c2cc(C(F)(F)F)ccc21 (stereo not given) | 270 nM | > 20000 nM | 620 nM | 450 nM |  |
| CCN1C(=O)C(c2cc(-c3cnn(C)c3)ccc2O)C(=O)N(c2ccccc2)c2cc(C(F)(F)F)ccc21 (stereo not given) | 170 nM |  | 180 nM |  | INH (Cytochrome P450 3A4): 1.7 µM; half-life [5]: 2.5 h; INH (Cytochrome P450 2D6): > 30 µM; Papp [6]: 4.3 ×10⁻⁶ cm/s |
| CCN1C(=O)C(c2ccc(O)c(-c3cnn(C)c3)c2)C(=O)N(c2ccccc2)c2cc(C(F)(F)F)ccc21 (stereo not given) | 120 nM |  | 190 nM |  | INH (Cytochrome P450 3A4): 5.7 µM; half-life [5]: 2 h; INH (Cytochrome P450 2D6): > 30 µM; Papp [6]: < 0.1 ×10⁻⁶ cm/s |
| CCN1C(=O)C(c2cc(-c3cnn(C)c3)c(O)cc2O)C(=O)N(c2ccccc2)c2cc(C(F)(F)F)ccc21 (stereo not given) | 100 nM |  | 140 nM |  | INH (Cytochrome P450 3A4): 4.5 µM; half-life [5]: 1.85 h; INH (Cytochrome P450 2D6): 13 µM; Papp [6]: 7.7 ×10⁻⁶ cm/s; half-life [7]: 0.183 h |
| CCN1C(=O)C(c2cc(-c3cn[nH]c3)c(O)cc2O)C(=O)N(c2ccccc2)c2cc(C(F)(F)F)ccc21 (stereo not given) | 50 nM |  | 130 nM |  | INH (Cytochrome P450 3A4): 4.8 µM; half-life [5]: > 5 h; INH (Cytochrome P450 2D6): 8.9 µM; Papp [6]: < 0.1 ×10⁻⁶ cm/s; half-life [7]: 0.25 h |
| CCCn1cc(-c2cc(C3C(=O)N(CC)c4ccc(C(F)(F)F)cc4N(c4ccccc4)C3=O)cc(OC)c2O)cn1 (stereo not given) | 160 nM |  | 70 nM |  | INH (Cytochrome P450 3A4): 3.6 µM; half-life [5]: 1.43 h; INH (Cytochrome P450 2D6): > 30 µM; half-life [8]: 4.8 h; Vd [9]: 15 L/kg; Papp [6]: 9.9 ×10⁻⁶ cm/s; CL (Rattus norvegicus): 50%; half-life [7]: 1.12 h |
| CCN1C(=O)N(c2ccc(O)c(-c3cnn(C)c3)c2)C(=O)N(c2ccccc2)c2cc(C(F)(F)F)ccc21 | 120 nM |  | 240 nM |  |  |
| CCN1C(=O)C2(CCc3cc(O)c(-c4cnn(C)c4)cc32)C(=O)N(c2ccccc2)c2cc(C(F)(F)F)ccc21 (stereo not given) | 130 nM |  | 300 nM |  |  |
| CCN1C(=O)C2(CCc3c2ccc(O)c3-c2cnn(C)c2)C(=O)N(c2ccccc2)c2cc(C(F)(F)F)ccc21 (stereo not given) | 200 nM |  | 780 nM |  |  |
